Where only a bound is given, the exact number is not on record here.

In this assay the target is T1, human MRGPRX2 (Homo sapiens, UniProt Q96LB1).
T1 sequence (Q96LB1 1-330): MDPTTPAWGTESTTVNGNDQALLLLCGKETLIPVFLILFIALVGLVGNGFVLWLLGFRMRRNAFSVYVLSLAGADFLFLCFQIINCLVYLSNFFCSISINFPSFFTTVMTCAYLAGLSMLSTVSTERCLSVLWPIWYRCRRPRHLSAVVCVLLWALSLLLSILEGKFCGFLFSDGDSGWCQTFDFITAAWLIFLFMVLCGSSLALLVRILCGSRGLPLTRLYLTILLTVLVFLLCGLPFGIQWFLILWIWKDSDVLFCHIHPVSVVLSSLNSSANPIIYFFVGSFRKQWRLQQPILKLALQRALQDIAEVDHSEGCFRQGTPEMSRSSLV
The assay can be described thus: Ca2+ mobilization assay (FLIPR TETRA): inhibition of Cortistatin-14 mediated MRGPRX2 activation.
The term IC50 denotes the concentration that gives 50% inhibition. High values mean weaker potency, low ones greater potency. On to `C[C@@H](C(=O)Nc1ccc(Cl)cn1)N1CCC(F)(F)[C@@H](c2c[nH]c(=O)c(N)c2)C1` [Example 141, (S)-2-((S)-3-(5-amino-6-oxo-1,6-dihydropyridin-3-yl)-4,4-difluoropiperidin-1-yl)-N-(5-chloropyridin-2-yl)propanamide], for which the half-inhibitory concentration (IC50) lay within 100 to 3160 nM.

Turning to `C[C@@H](C(=O)Nc1ccc(OC2CCCC2)cn1)N1CCC(F)(F)[C@@H](c2ccc(=O)[nH]c2)C1` [Example 9, (S)-N-(5-(cyclopentyloxy)pyridin-2-yl)-2-((S)-4,4-difluoro-3-(6-oxo-1,6-dihydropyridin-3-yl)piperidin-1-yl)propanamide], the IC50 was in the range of 10 to 100 nM. In the case of `C[C@@H](C(=O)Nc1ccc(Oc2ccc(F)cn2)cn1)[C@H]1CCC(F)(F)[C@@H](c2cc[n+]([O-])cc2)C1` [Example 294, 4-((1R,5S)-2,2-difluoro-5-((R)-1-((5-((5-fluoropyridin-2-yl)oxy)pyridin-2-yl)amino)-1-oxopropan-2-yl)cyclohexyl)pyridine 1-oxide], the IC50 was at most 10 nM. The result for `C[C@@H](C(=O)Nc1ccc(OCC2CC2)nn1)N1CCC(F)(F)[C@@H](c2c[nH]c(=O)c(CN3CCOCC3)c2)C1` (single isomer, unassigned) [Example 225] reads 100 to 3160 nM. The result for `C[C@@H](C(=O)Nc1ccc(F)cn1)N1CCC(F)(F)[C@@H](c2cc(N)c(=O)[nH]n2)C1` [Example 143, (S)-2-((R)-3-(5-amino-6-oxo-1,6-dihydropyridazin-3-yl)-4,4-difluoropiperidin-1-yl)-N-(5-fluoropyridin-2-yl)propanamide] reads 10 to 100 nM. Take `CC(C(=O)Nc1ccc(OC2CCCCC2)cn1)N1CCC(F)(F)[C@@H](c2ccc(=O)[nH]c2)C1` (stereo partly drawn) [Example 24, N-(5-(cyclohexyloxy)pyridin-2-yl)-2-((S)-4,4-difluoro-3-(6-oxo-1,6-dihydropyridin-3-yl)piperidin-1-yl)propanamide]: the IC50 was 100 to 3160 nM. Regarding `CC(C(=O)Nc1ccc(-c2ccn(C)n2)cn1)N1CCC(F)(F)[C@@H](c2ccc(=O)[nH]c2)C1` (stereo partly drawn) [Example 55, 2-((S)-4,4-difluoro-3-(6-oxo-1,6-dihydropyridin-3-yl)piperidin-1-yl)-N-(5-(1-methyl-1H-pyrazol-3-yl)pyridin-2-yl)propanamide], the IC50 fell in the range of 3160 to 31600 nM. The result for `C[C@@H](C(=O)Nc1ccc(OCC2CCC2)nn1)N1CCC(F)(F)[C@@H](c2ccc(=O)[nH]c2)C1` [Example 71, (S)-N-(6-(cyclobutyl-methoxy)pyridazin-3-yl)-2-((S)-4,4-difluoro-3-(6-oxo-1,6-dihydropyridin-3-yl)piperidin-1-yl)propanamide] reads 100 to 3160 nM. The result for `CC(C(=O)Nc1ccc(C(=O)OC2CC2)cn1)N1CCC(F)(F)[C@@H](c2ccc(=O)[nH]c2)C1` (stereo partly drawn) [Example 83, cyclopropyl 6-(2-((S)-4,4-difluoro-3-(6-oxo-1,6-dihydropyridin-3-yl)piperidin-1-yl)propanamido) nicotinate] reads 100 to 3160 nM; that for `CC(C(=O)Nc1ccc(F)cn1)N1CCC(F)(F)C(c2ccc(=O)n(Cc3ccccn3)c2)C1` (stereo not shown) [Example 196, 2-(4,4-difluoro-3-(6-oxo-1-(pyridin-2-ylmethyl)-1,6-dihydropyridin-3-yl)piperidin-1-yl)-N-(5-fluoropyridin-2-yl)propanamide], 10 to 100 nM. For `C[C@@H](C(=O)Nc1ccc(OCC2CC2)cn1)N1CCC[C@@](O)(c2ccc(=O)[nH]c2)C1` (single isomer, unassigned) [Example 171], the half-inhibitory concentration (IC50) fell in the range of 3160 to 31600 nM. The result for `C[C@@H](C(=O)Nc1ccc(F)cn1)N1CCC(F)(F)[C@@H](c2c[nH]c(=O)cn2)C1` [Example 135, (S)-2-((R)-4,4-difluoro-3-(5-oxo-4,5-dihydropyrazin-2-yl)piperidin-1-yl)-N-(5-fluoropyridin-2-yl)propanamide] reads 10 to 100 nM; that for `C[C@@H](C(=O)Nc1ccc(Cl)cn1)N1CCC[C@@H](c2c[nH]c(=O)c(CO)c2)C1` (single isomer, unassigned) [Example 177], 3160 to 31600 nM. The result for `Cc1cccc(-c2ccc(NC(=O)[C@H](C)N3CCC(F)(F)[C@@H](c4ccc(=O)[nH]c4)C3)nc2)c1` [Example 16, (S)-2-((S)-4,4-difluoro-3-(6-oxo-1,6-dihydropyridin-3-yl)piperidin-1-yl)-N-(5-(m-tolyl)pyridin-2-yl)propanamide] reads 10 to 100 nM. `C[C@@H](C(=O)Nc1cc2ccccc2cn1)N1CCC(F)(F)[C@@H](c2ccc(=O)[nH]c2)C1` [Example 34, (S)-2-((S)-4,4-difluoro-3-(6-oxo-1,6-dihydropyridin-3-yl)piperidin-1-yl)-N-(isoquinolin-3-yl)propanamide] came in with an IC50 of 100 to 3160 nM. The result for `C[C@@H](C(=O)Nc1ccc(OCC2CC2)cn1)N1CCC(F)(F)[C@@H](c2c[nH]c(=O)c(C(C)(C)O)c2)C1` [Example 152, (S)—N-(5-(cyclopropylmethoxy)pyridin-2-yl)-2-((S)-4,4-difluoro-3-(5-(2-hydroxypropan-2-yl)-6-oxo-1,6-dihydropyridin-3-yl)piperidin-1-yl)propanamide] reads 10 to 100 nM; that for `C[C@@H](C(=O)Nc1ccc(Oc2ccc(F)cc2F)cn1)N1CCC[C@@H](c2cc[n+]([O-])cc2)C1` [Example 182, 4-((S)-1-((S)-1-((5-(2,4-difluorophenoxy)pyridin-2-yl)amino)-1-oxopropan-2-yl)piperidin-3-yl)pyridine 1-oxide], at most 10 nM. The result for `C[C@@H](C(=O)Nc1ccc(Cc2ccncc2)cn1)N1CCC(F)(F)[C@@H](c2ccc(=O)[nH]c2)C1` [Example 13, (S)-2-((S)-4,4-difluoro-3-(6-oxo-1,6-dihydropyridin-3-yl)piperidin-1-yl)-N-(5-(pyridin-4-ylmethyl)pyridin-2-yl)propanamide] reads 10 to 100 nM; that for `C[C@@H](C(=O)Nc1ccc(F)cn1)N1CCC(F)(F)[C@@H](c2c[nH]c(=O)c(N)c2)C1` [Example 142, (S)-2-((S)-3-(5-amino-6-oxo-1,6-dihydropyridin-3-yl)-4,4-difluoropiperidin-1-yl)-N-(5-fluoropyridin-2-yl)propanamide], 100 to 3160 nM; that for `C[C@@H](C(=O)Nc1ccc(OCC2CC2)cn1)N1CCC(F)(F)[C@@](C)(c2ccc(=O)[nH]c2)C1` [Example 163, (S)—N-(5-(cyclopropylmethoxy)pyridin-2-yl)-2-((S)-4,4-difluoro-3-methyl-3-(6-oxo-1,6-dihydropyridin-3-yl)piperidin-1-yl)propanamide], 100 to 3160 nM. The figure for `C[C@@H](C(=O)Nc1ccc(OCC2CC2)nn1)N1CCC(F)(F)C(c2c[nH]c(=O)c(Br)c2)C1` (stereo partly drawn) [Example 221, (2S)-2-(3-(5-bromo-6-oxo-1,6-dihydropyridin-3-yl)-4,4-difluoropiperidin-1-yl)-N-(6-(cyclopropylmethoxy)pyridazin-3-yl)propanamide] is 10 to 100 nM.

On to `CC(Oc1ccc(NC(=O)C(C)N2CCC(F)(F)[C@@H](c3ccc(=O)[nH]c3)C2)nc1)C1CC1` (stereo partly drawn) [Example 31, N-(5-(1-cyclopropyl-ethoxy)pyridin-2-yl)-2-((S)-4,4-difluoro-3-(6-oxo-1,6-dihydropyridin-3-yl)piperidin-1-yl)propanamide], for which the IC50 was in the range of 100 to 3160 nM.

These data come from patent US11976057B2, “MrgX2 antagonists” (GlaxoSmithKline Intellectual Property Development Limited, priority 2020, dated 2024).
